Test results taken from patent US6737383B1, “Herbicidal oxadiazolidines” (priority 1999, dated 2004).

Assays:
velvetleaf = assay: Test B pre/postemergence velvetleaf; format: in vivo, Abutilon theophrasti
Procedure, shortened: (§1)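 Test chemicals in a non-phytotoxic solvent mixture with surfactant were sprayed preemergence onto planted seeds and postemergence onto plants 2 to 18 cm tall (1- to 4-leaf stage). After twelve to sixteen days in a greenhouse, injury was visually rated against untreated controls from 0 (no effect) to 10 (complete control).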

surinam grass = assay: Test B pre/postemergence surinam grass; format: in vivo, Brachiaria decumbens
Procedure, shortened: as §1

cocklebur = assay: Test B pre/postemergence cocklebur; format: in vivo, Xanthium strumarium
Procedure, shortened: as §1

corn = assay: Test B pre/postemergence corn; format: in vivo, Zea mays
Procedure, shortened: as §1

soybean = assay: Test B pre/postemergence soybean; format: in vivo, Glycine max
Procedure, shortened: as §1

pigweed = assay: Test B pre/postemergence pigweed; format: in vivo, Amaranthus retroflexus
Procedure, shortened: as §1

wild oat = assay: Test B pre/postemergence wild oat; format: in vivo, Avena fatua
Procedure, shortened: as §1

bedstraw = assay: Test B pre/postemergence bedstraw; format: in vivo, Galium aparine
Procedure, shortened: as §1

blackgrass = assay: Test B pre/postemergence blackgrass; format: in vivo, Alopecurus myosuroides
Procedure, shortened: as §1

morningglory = assay: Test B pre/postemergence morningglory; format: in vivo, Ipomoea hederacea
Procedure, shortened: as §1

wheat = assay: Test B pre/postemergence wheat; format: in vivo, Triticum aestivum
Procedure, shortened: as §1

rape = assay: Test B pre/postemergence rape; format: in vivo, Brassica napus
Procedure, shortened: as §1

giant foxtail = assay: Test B pre/postemergence giant foxtail; format: in vivo, Setaria faberii
Procedure, shortened: as §1

purple nutsedge = assay: Test B pre/postemergence purple nutsedge; format: in vivo, Cyperus rotundus
Procedure, shortened: as §1

crabgrass = assay: Test B pre/postemergence crabgrass; format: in vivo, Digitaria sanguinalis
Procedure, shortened: as §1

[1] = Preemergence, Rate 62 g/ha, scale of 0 to 10 where 0 is no effect and 10 is complete control
[2] = Preemergence, Rate 250 g/ha, scale of 0 to 10 where 0 is no effect and 10 is complete control
[3] = Preemergence, Rate 500 g/ha, scale of 0 to 10 where 0 is no effect and 10 is complete control
[4] = Rate 62 g/ha, Postemergence, scale 0 to 10 (0 no effect, 10 complete control)
[5] = Rate 125 g/ha, Postemergence, scale of 0 to 10 where 0 is no effect and 10 is complete control
[6] = Rate 250 g/ha, Postemergence, scale of 0 to 10 where 0 is no effect and 10 is complete control
[7] = Rate 500 g/ha, Postemergence, scale 0 to 10, 0 no effect, 10 complete control

CC(C)N(C(=O)n1oc(=O)n(C2CCOCC2)c1=O)c1ccc(F)cc1 [Compound 310]
6: Morningglory plant response rating (0 to 10 scale) (morningglory; Preemergence, Rate 125 g/ha) | Morningglory plant response rating (morningglory; [2]) | Plant response rating, Wheat (wheat; [6]) | Rape plant response rating (0 to 10 scale) (rape; Preemergence, Rate 125 g/ha) | Plant response rating, Nutsedge (purple nutsedge; [6])
0: Cocklebur plant response rating (cocklebur; [1]) | Cocklebur plant response rating (0 to 10 scale) (cocklebur; Preemergence, Rate 125 g/ha) | Cocklebur plant response rating (cocklebur; [4]) | Cocklebur plant response rating (cocklebur; [5]) | Corn plant response rating (corn; [1]) | Corn plant response rating (0 to 10 scale) (corn; Preemergence, Rate 125 g/ha) | Corn plant response rating (corn; [2]) | Corn plant response rating (corn; [4]) | Corn plant response rating (corn; [5]) | Plant response rating, Corn (corn; [6]) | Corn plant response rating (corn; [7]) | Soybean plant response rating (soybean; [1]) | Soybean plant response rating (0 to 10 scale) (soybean; Preemergence, Rate 125 g/ha) | Redroot pigweed plant response rating (pigweed; [4]) | Redroot pigweed plant response rating (pigweed; [5]) | Rape plant response rating (rape; [4]) | Rape plant response rating (rape; [5]) | Plant response rating, Rape (rape; [6]) | Nutsedge plant response rating (purple nutsedge; [1]) | Nutsedge plant response rating (0 to 10 scale) (purple nutsedge; Preemergence, Rate 125 g/ha)
9: Redroot pigweed plant response rating (pigweed; [1]) | Wild oats plant response rating (0 to 10 scale) (wild oat; Preemergence, Rate 125 g/ha) | Wild oats plant response rating (wild oat; [2]) | Wild oats plant response rating (wild oat; [3]) | Plant response rating, Blackgrass (blackgrass; [6]) | Blackgrass plant response rating (blackgrass; [7]) | Crabgrass plant response rating (crabgrass; [5]) | Plant response rating, Crabgrass (crabgrass; [6])
4: Plant response rating, Velvetleaf (velvetleaf; [6]) | B. signalgrass plant response rating (surinam grass; [1]) | B. signalgrass plant response rating (0 to 10 scale, 0 is no effect, 10 is complete control) (surinam grass; Preemergence, Rate 125 g/ha) | Cocklebur plant response rating (cocklebur; [3]) | Soybean plant response rating (soybean; [4]) | Soybean plant response rating (soybean; [5]) | Plant response rating, Soybean (soybean; [6]) | Bedstraw plant response rating (bedstraw; [4]) | Bedstraw plant response rating (bedstraw; [5]) | Morningglory plant response rating (morningglory; [4]) | Wheat plant response rating (wheat; [4]) | Wheat plant response rating (wheat; [5])
2: Velvetleaf plant response rating (velvetleaf; [1]) | Velvetleaf plant response rating (velvetleaf; [4]) | B. signalgrass plant response rating (surinam grass; [4]) | Cocklebur plant response rating (cocklebur; [2]) | Plant response rating, Cocklebur (cocklebur; [6]) | Soybean plant response rating (soybean; [2]) | Bedstraw plant response rating (bedstraw; [1]) | Morningglory plant response rating (morningglory; [1]) | Wheat plant response rating (wheat; [1]) | Wheat plant response rating (0 to 10 scale) (wheat; Preemergence, Rate 125 g/ha) | Nutsedge plant response rating (purple nutsedge; [4])
7: Velvetleaf plant response rating (velvetleaf; [2]) | B. signalgrass plant response rating (surinam grass; [2]) | Plant response rating, B. signalgrass (surinam grass; [6]) | B. signalgrass plant response rating (surinam grass; [7]) | Cocklebur plant response rating (cocklebur; [7]) | Plant response rating, Bedstraw (bedstraw; [6]) | Blackgrass plant response rating (blackgrass; [5]) | Plant response rating, Morningglory (morningglory; [6]) | Wheat plant response rating (wheat; [3]) | Giant foxtail plant response rating (giant foxtail; [4]) | Giant foxtail plant response rating (giant foxtail; [5]) | Crabgrass plant response rating (crabgrass; [2]) | Crabgrass plant response rating (crabgrass; [3])
10: Redroot pigweed plant response rating (0 to 10 scale) (pigweed; Preemergence, Rate 125 g/ha) | Redroot pigweed plant response rating (pigweed; [2]) | Redroot pigweed plant response rating (pigweed; [3]) | Bedstraw plant response rating (bedstraw; [3]) | Blackgrass plant response rating (blackgrass; [1]) | Blackgrass plant response rating (0 to 10 scale) (blackgrass; Preemergence, Rate 125 g/ha) | Blackgrass plant response rating (blackgrass; [2]) | Blackgrass plant response rating (blackgrass; [3]) | Rape plant response rating (rape; [2]) | Rape plant response rating (rape; [3]) | Giant foxtail plant response rating (giant foxtail; [1]) | Giant foxtail plant response rating (0 to 10 scale) (giant foxtail; Preemergence, Rate 125 g/ha) | Giant foxtail plant response rating (giant foxtail; [2]) | Giant foxtail plant response rating (giant foxtail; [3]) | Nutsedge plant response rating (purple nutsedge; [2]) | Nutsedge plant response rating (purple nutsedge; [3])
8: Velvetleaf plant response rating (velvetleaf; [3]) | B. signalgrass plant response rating (surinam grass; [3]) | Wild oats plant response rating (wild oat; [1]) | Morningglory plant response rating (morningglory; [3]) | Plant response rating, Giant foxtail (giant foxtail; [6]) | Crabgrass plant response rating (crabgrass; [4])
5: Corn plant response rating (corn; [3]) | Soybean plant response rating (soybean; [3]) | Bedstraw plant response rating (bedstraw; [2]) | Bedstraw plant response rating (bedstraw; [7]) | Blackgrass plant response rating (blackgrass; [4]) | Morningglory plant response rating (morningglory; [5]) | Wheat plant response rating (wheat; [2]) | Rape plant response rating (rape; [1]) | Crabgrass plant response rating (crabgrass; [1]) | Crabgrass plant response rating (0 to 10 scale) (crabgrass; Preemergence, Rate 125 g/ha)
3: Velvetleaf plant response rating (0 to 10 scale) (velvetleaf; Preemergence, Rate 125 g/ha) | Velvetleaf plant response rating (velvetleaf; [5]) | B. signalgrass plant response rating (surinam grass; [5]) | Plant response rating, Redroot pigweed (pigweed; [6]) | Wild oats plant response rating (wild oat; [4]) | Wild oats plant response rating (wild oat; [5]) | Plant response rating, Wild oats (wild oat; [6]) | Bedstraw plant response rating (0 to 10 scale) (bedstraw; Preemergence, Rate 125 g/ha) | Nutsedge plant response rating (purple nutsedge; [5])
